Source: patent publication US12116348B2, “Substituted benzimidazole compound and composition comprising same” (Shenzhen TargetRx, Inc., priority 2017, dated 2024)

Experiments:
[1] = Metabolic stability evaluation in mouse liver microsomes; format: in vitro ADME; conditions: SD, pH 7.4, mouse liver microsomes 0.5 mg/mL, compound 1 μM; for microsomal CLint at 1 μM: liver intrinsic clearance; for half-life at 1 μM: NADPH, 37° C.
Experimental: (2) Metabolic Stability Evaluation
Microsome assay: mouse liver microsomes: 0.5 mg/mL, Xenotech; coenzyme (NADPH/NADH): 1 mM, Sigma Life Science; magnesium chloride: 5 mM, 100 mM phosphate buffer (pH 7.4).
Preparation of stock solutions: Powder of the example compounds were accurately weighed and dissolved in DMSO to 5 mM respectively.
Preparation of phosphate buffer (100 mM, pH7.4): A pre-prepared 0.5M potassium dihydrogen phosphate (150 mL) was mixed with 0.5M dibasic potassium phosphate (700 mL). The pH of the mixture was adjusted to 7.4 with 0.5M dibasic potassium phosphate solution. The mixture was diluted 5-fold with ultrapure water before use, and magnesium chloride was added to obtain a phosphate buffer (100 mM) containing 100 mM potassium phosphate, 3.3 mM magnesium chloride, pH 7.4.
A NADPH regeneration system solution (containing 6.5 mM NADP, 16.5 mM G-6-P, 3 U/mL G-6-P D, 3.3 mM magnesium chloride) was prepared and placed on wet ice prior to use.
Preparation of stop solution: an acetonitrile solution containing 50 ng/mL propranolol hydrochloride and 200 ng/mL tolbutamide (internal standard). 25057.5 μL of phosphate buffer (pH 7.4) was taken into a 50 mL centrifuge tube, to which 812.5 μL of SD mouse liver microsomes were added, and mixed to obtain a liver microsome dilution with a protein concentration of 0.625 mg/mL.
Incubation of the samples: The stock solutions of the respective compounds were respectively diluted to 0.25 mM with an aqueous solution containing 70% acetonitrile, and used as a working solution, ready for use. 398 μL of the dilutions of mouse liver microsomes were added to 96-well incubation plates (N=2), respectively, and 2 μL of 0.25 mM working solution was added respectively and mixed.
Metabolic stability assay: 300 μL of pre-chilled stop solution was added to each well of 96-well deep well plates and placed on ice as stop plates. The 96-well incubation plates and NADPH regeneration system were placed in a 37° C. water bath, shaken at 100 rpm and pre-incubated for 5 min. 80 μL of incubation solution was taken out from each well of the incubation plates and added to the stop plates, mixed, and replenished with 20 μL of NADPH regeneration system solution as a 0-min sample. 80 μL of NADPH regeneration system solution was added to each well of the incubation plates to start the reaction and start counting. […] Separately, 100 μL of the reaction solutions was taken at 10, 30, and 90 min after the reaction, respectively, added to stop plates, and vortexed for 3 minutes to terminate the reaction. The stop plates were centrifuged at 5000×g at 4° C. for 10 min. 100 μL of the supernatant was added to a 96-well plate to which 100 μL of distilled water was previously added, mixed, and analyzed by LC-MS/MS.
Data analysis: The peak areas of the corresponding compounds and internal standard were detected by LC-MS/MS system, and the ratio of the peak area of the compounds to the internal standard was calculated.

HT-29 cells = assay: Cytotoxicity experiment: viability of HT-29 cells (CellTiter-Glo); format: cell-based; conditions: Homo sapiens, 72 hours, CTG analysis, read-out: HT-29 cell IC50
Experimental: (1) Cytotoxicity Experiment
The inhibitory effects of the example compounds on the viability of HT-29 cells were tested.
Cell line: HT-29 (cell type: adherent; number of cells/well: 3000; medium: RPMI-1640+10% FBS) was cultured under the condition of 37° C., 5% CO2, and 95% humidity.
Materials and Reagents: Fetal bovine serum (FBS, GBICO, Cat. No. 10099-141), CellTiter-Glo® Luminescent Cell Viability Assay (Promega, Cat. No. G7572), 96-well plate with transparent flat bottom and black walls (Corning®, Cat. No. 3603).
Instruments: SpectraMax multi-label microplate reader, MD, 2104-0010A; CO2 incubator, Thermo Scientific, Model 3100 Series; biosafety cabinet, Thermo Scientific, Model 1300 Series A2; inverted microscope, Olympus, CKX41SF; refrigerator, SIEMENS, KK25E76TI.
• 1) Cell culture and inoculation: i) cells in the logarithmic growth phase were harvested and counted using a […]. The cell viability was determined by trypan blue exclusion method to ensure that the cell viability was greater than 90%; ii) the cell concentration was adjusted; and 90 μL of the cell suspension was added into a 96-well plate, respectively; iii) the cells in the 96-well plate were cultured overnight under the condition of 37° C., 5% CO2 and 95% humidity. • 2) Drug dilution and dosing: i) the 10-fold drug solutions were prepared with a maximum concentration of 100 μM, which was diluted using a 3.16-fold serial gradient dilution, resulting in 9 concentrations. 10 μL of the drug solutions was added to each well of the 96-well plate inoculated with cells; and each drug concentration was tested in triplicate; ii) the cells in the 96-well plate added with drugs were cultured under the condition of 37° C., 5% CO2 and 95% humidity for 72 hours, and then CTG analysis was carried out. • 3) Plate reading at the end point: i) CTG reagent was thawed and the cell plate was equilibrated to room temperature for 30 minutes; ii) equal volume of the CTG solution was added to each well; iii) the cell plate was shaked on the orbital shaker for 5 minutes to lyse the cells; iv) the cell plate was placed at room temperature for 20 minutes to stabilize the cold light signal; v) the cold light values were read.
Data processing: GraphPad Prism 5.0 software was used to analyze the data, and the data was fitted using the non-linear S-curve regression to get a dose-effect curve, and IC50 values were calculated accordingly. Cell viability (%)=(Lum of test drug−Lum of medium control)/(Lum of cell control−Lum of medium control)×100%.

Row | Compound | microsomal CLint at 1 μM [1] [µL/min/mg] | half-life at 1 μM [1] [h] | IC50 (HT-29 cells) [pM]
1 | [2H]C([2H])(O)CONC(=O)c1cc2c(ncn2C([2H])([2H])[2H])c(F)c1Nc1ccc(Br)cc1Cl [A-5, 6-(4-bromo-2-chlorophenylamino)-7-fluoro-3-(methyl-d3)-3H-benzimidazole-5-carboxylic acid (2-hydroxyethoxy-2,2-d2)amide] | 20.9 | 1.11 | < 500
2 | Cn1cnc2c(F)c(Nc3ccc(Br)cc3Cl)c(C(=O)NOCCO)cc21 [Selumetinib, 6-(4-bromo-2-chloro-phenylamino)-7-fluoro-3-methyl-3H-benzimidazole-5-carboxylic acid (2-hydroxy-ethoxy)-amide, reference compound] | 23.6 | 0.978 | < 500

Second part, led by results:

Row | microsomal CLint at 1 μM [1] [µL/min/mg] | half-life at 1 μM [1] [h] | Compound | IC50 (HT-29 cells) [pM]
3 | 24.6 | 0.94 | [2H]C([2H])(O)CONC(=O)c1cc2c(ncn2C)c(F)c1Nc1ccc(Br)cc1Cl [A-4, 6-(4-bromo-2-chlorophenylamino)-7-fluoro-3-methyl-3H-benzimidazole-5-carboxylic acid (2-hydroxyethoxy-2,2-d2)amide] | < 500
4 | 19.7 | 1.17 | [2H]C([2H])([2H])n1cnc2c(F)c(Nc3ccc(Br)cc3Cl)c(C(=O)NOCCO)cc21 [A-1, 6-(4-bromo-2-chloro-phenylamino)-7-fluoro-3-(methyl-d3)-3H-benzimidazole-5-carboxylic acid (2-hydroxyethoxy)-amide] | < 500
5 | 19.8 | 1.17 | [2H]C([2H])(O)C([2H])([2H])ONC(=O)c1cc2c(ncn2C)c(F)c1Nc1ccc(Br)cc1Cl [A-6, 6-(4-bromo-2-chlorophenylamino)-7-fluoro-3-methyl-3H-benzimidazole-5-carboxylic acid (2-hydroxyethoxy-1,1,2,2-d4)amide] | –
